In PubChem BioAssay AID743396 (Broad Institute, 2014):
The source made the active and inactive calls.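 The calls were made as follows: active = fitted curve reaches a 40% rise in fluorescent cells at or below the top valid dose; inactive = opposite-direction effect, or the rest.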

Assay: compound fluorescence in GFP channel, mTEFS cells – imaging, mTEFS fibroblasts, cherry-pick, artefact control for X-chromosome reactivation project, dose response (AID 743396);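 also: raw share of Hoechst-counted cells scored GFP positive without control normalization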
Conditions: mTEFS fibroblasts autofluorescence, GFP-channel imaging, 3 days; at 19.5 µM (top of the series)

| Structure (SMILES) | % fluorescent cells increase |
| --- | --- |
| COP(=S)(OC)Oc1ccc(Sc2ccc(OP(=S)(OC)OC)cc2)cc1 | 0.075% (inactive) |
| COC(=O)Cn1cc(/C=C2\C(=O)NC(=O)N(c3ccc(OC)cc3)C2=O)c2ccccc21 | 0.304% (inactive) |
| C[n+]1c(-c2ccccc2)c2cc(N)ccc2c2ccc(N)cc21 | 0.212% (inactive) |

Same assay, conditions: mTEFS fibroblasts autofluorescence, GFP-channel imaging, 3 days; at 19.5 µM (top of the series); cells pretreated with 5-aza-dC

| Structure (SMILES) | % fluorescent cells increase |
| --- | --- |
| COc1ccc(N(CC(=O)Nc2nccs2)S(=O)(=O)c2c(C)[nH]c(=O)[nH]c2=O)cc1 | 0% (inactive) |
| CC(=O)c1ccc(NS(=O)(=O)c2ccc(N/C=C/C(=O)c3ccc(F)cc3)cc2)cc1 | 0% (inactive) |
| CC(C)(C)[S@@](=O)N1Cc2cc(C(=O)N3CCCCC3)nc(-c3cccc(-c4cccc(C#N)c4)c3)c2[C@H]1CCO | 0.101% (inactive) |
| COc1cc(/C=C/c2ccc3cccc(O)c3n2)c(Br)cc1O | 0% (inactive) |
| COc1ccc(-c2noc(-c3cccs3)n2)cc1OC | 0.073% (inactive) |
| CCC(C(=O)Nc1cc(OC)c(NC(=O)c2ccccc2)cc1OC)c1ccccc1 (configuration not stated) | 0.022% (inactive) |
| Cc1ccc(-c2nc(CS(=O)CC(=O)NCCCN3CC(C)CC(C)C3)c(C)o2)cc1 (configuration not stated) | 0.023% (inactive) |
| COc1ccc(COc2ccccc2C(=O)NCc2ccccc2)cc1F | 0% (inactive) |
| CCCN1CCN(C(=O)C2CCN(c3nnc(C)c4c(C)n(-c5ccc(C)cc5)nc34)CC2)CC1 | 0.895% (inactive) |
| COc1ccc(-c2ccc(C#N)c(SCC(=O)NCc3ccco3)n2)cc1OC | 0% (inactive) |
| CC(C)C(NC(=O)c1ccc(F)cc1)C(=O)NCC1CCCO1 (configuration not stated) | 0.01% (inactive) |
| NNC(=O)c1sc(-c2ccc(Cl)cc2)cc1N | 0.125% (inactive) |
| CC(OCCN(C)C)C(=O)C12CC3CC(CC(C3)C1)C2 (configuration not stated) | 0.039% (inactive) |
| COc1ccc2c(c1)C(C)=CC(C)(C)N2S(=O)(=O)c1ccc(Br)cc1 | 0% (inactive) |
| O=C(CSc1nc2ccccc2[nH]1)N/N=C/C=C/c1ccccc1[N+](=O)[O-] | 0.094% (inactive) |
| COc1cccc(CNC(=O)c2cc(S(=O)(=O)N3CCOCC3)cn2C)c1 | 0.274% (inactive) |
| CC(=O)c1cccc(-c2ccc3c(c2)C(C)(Cc2ccc(S(C)(=O)=O)cc2)C(=O)N3)c1 (configuration not stated) | 0% (inactive) |
| O=C(C[C@@H]1C[C@@H]2c3cc(NC(=O)C4CCC4)ccc3O[C@@H]2[C@@H](CO)O1)NCc1ccc(Cl)cc1 | 0.34% (inactive) |
| Cc1cc(C(=O)Nc2ccc(Cl)c(S(=O)(=O)N3CCOCC3)c2)c2ccccc2n1 | 0.116% (inactive) |
| Cc1cccc(NCc2ccc(O)c3ncccc23)c1C | 0.074% (inactive) |
| CCOC(=O)Cc1c(C)[nH]n(-c2ccccc2)c1=O | 0.015% (inactive) |
| COc1ccc2c3c([nH]c2c1)[C@@H](CO)N(Cc1cc(F)ccc1F)CC31CCN(C(C)=O)CC1 | 0% (inactive) |
| CCN(CC)CCCNC1=C(Cl)C(=O)c2ccccc2C1=O | -0.011% (inactive) |
| Cc1cccc(C(=O)NCc2ccc(S(N)(=O)=O)cc2)c1[N+](=O)[O-] | -0.007% (inactive) |
| COc1ccc(NC(=O)Nc2ccc3c(c2)C(=O)N([C@@H](C)CO)C[C@H](C)[C@@H](CN(C)S(=O)(=O)c2ccc(OC)cc2)O3)cc1 | 0% (inactive) |
| CN(CC(=O)Nc1ccc(Cl)c(Cl)c1)CC(=O)Nc1ccc2c(c1)OCO2 | 0% (inactive) |

| Structure (SMILES) | % fluorescent cells increase |
| --- | --- |
| CCOc1ccc(NC(=S)NC(C)c2cccs2)cc1 (configuration not stated) | 0% (inactive) |
| CC(C)CC#Cc1ccc([C@@H]2[C@@H](CO)N3C(=O)CN(C(=O)c4cccc(F)c4)C[C@H]23)cc1 | -0.108% (inactive) |
| COc1ccc2c3c([nH]c2c1)[C@@H](CO)N(Cc1ccccc1F)CC31CN(C(=O)C2CCOCC2)C1 | -0.038% (inactive) |
| Cc1ccccc1NC(=O)c1c(C)[nH]c(=S)c(C#N)c1-c1ccc(Cl)cc1 | 0.031% (inactive) |
| CC(C)N1CCc2c(sc(NC(=O)c3cc4cc([N+](=O)[O-])ccc4s3)c2C(N)=O)C1 | 0% (inactive) |
| COc1cccc(CNC(=O)CNC(=S)N(Cc2ccccc2)Cc2ccccc2F)c1 | 0.054% (inactive) |
| CC(=O)N[C@@H](CC(=O)O)C(=O)O | 0.642% (inactive) |
| O=C(Nc1cccc(C(=O)O)c1)/C(=C\c1ccccc1)NC(=O)c1ccc(Br)o1 | 0% (inactive) |
| Cc1ccc(C)c(CSC2=NN3CCCC(=O)N=C3S2)c1 | -0.006% (inactive) |
| CCOC(=O)/C(C#N)=C/C=C1/C=CC=CN1C | 0.015% (inactive) |
| O=C(NCCOc1ccccc1)c1cc([N+](=O)[O-])ccc1N1CCOCC1 | 0.343% (inactive) |
| Cc1nn2c(NCCCN(C)C)c3c(nc2c1-c1ccccc1)CCCC3 | -0.007% (inactive) |
| CN(C)CCN(C(=O)c1ccc(S(=O)(=O)N(C)c2ccccc2)cc1)c1nc2cc3c(cc2s1)OCCO3 | 0% (inactive) |
| Cc1cc2c(NC(=O)Nc3ccc(C(C)(C)C)cc3)cccc2nn1 | 0.237% (inactive) |
| COc1ccc2c3c(n(C)c2c1)[C@H](CO)N(C(=O)CN1CCOCC1)CC31CCN(C(=O)Nc2cccc(F)c2)CC1 | 0% (inactive) |
| CCN(CC)S(=O)(=O)c1ccc(Cl)c(NC(=O)COC(=O)c2c(C)noc2C)c1 | 0.009% (inactive) |
| COc1ccc(C2C(=O)c3ccccc3C2=Nc2ccc(Br)cc2)cc1 (configuration not stated) | 0.033% (inactive) |
| CN(C)CCCNC(=O)/C(=C\c1ccc(-c2ccc(Br)cc2)o1)NC(=O)c1ccccc1 | -0.006% (inactive) |
| Cc1ccc(NC(=O)c2ccc(=O)[nH]c2)cc1S(=O)(=O)N1CCCCCC1 | 0.615% (inactive) |
| CCOCCCNC(=O)/C(C#N)=C/c1ccc([N+](=O)[O-])o1 | 9.9% (inactive) |
| COC(=O)c1cc(NS(=O)(=O)c2ccc(NC(C)=O)cc2)ccc1Cl | 0% (inactive) |
| CC(C)Oc1ccc(/C(O)=C2/C(=O)C(=O)N(CCN(C)C)C2c2cccs2)cc1 (configuration not stated) | 0% (inactive) |
| NC(=S)Nc1ccc(Cl)cc1Cl | 0.009% (inactive) |
| Cc1cc(NC(=O)CSc2nnc(-c3c[nH]c4ccccc34)n2-c2ccc(F)cc2)no1 | 0.026% (inactive) |
| COc1ccc(-n2nc(C#N)c(Cl)cc2=O)cc1 | -0.006% (inactive) |
| CCc1ccc(N2CC(C(=O)Nc3cc(C)on3)CC2=O)cc1 (configuration not stated) | 0.015% (inactive) |

| Structure (SMILES) | % fluorescent cells increase |
| --- | --- |
| Cc1[nH]c2ccccc2c1/C=N/Nc1nc2ccccc2[nH]1 | 0% (inactive) |
| Cc1onc(-c2c(Cl)cccc2Cl)c1-c1nc2cc(Cl)ccc2c(=O)o1 | -0.011% (inactive) |
| Oc1cc2c(c(Cl)c1O)CCNCC2c1ccccc1 (configuration not stated) | -0.007% (inactive) |
| COc1ccc2c3c([nH]c2c1)[C@H](CO)N(C(=O)Nc1ccc(F)cc1)CC31CN(CC2CC2)C1 | 0.116% (inactive) |
| COc1ccc(C2=NOC3(CC(=O)N(c4ccc(F)cc4)C3=O)C2)cc1 (configuration not stated) | 0.016% (inactive) |
| COc1ccc(-c2ccc3[nH]c4c(c3c2)CCN2C(=O)[C@@H]([C@H](C)O)[C@@H](N(C)C(=O)Nc3ccc(F)cc3)C[C@@H]42)cc1 | 10.8% (inactive) |
| Cc1ccc(-c2csc(NC(=O)c3cccc([N+](=O)[O-])c3C(=O)O)n2)cc1 | 0% (inactive) |
| C[C@@H]1ON(C)[C@H]2C[C@H]3c4cc(-c5cccc(F)c5)ccc4CCN3C(=O)[C@@H]12 | 0% (inactive) |
| O=C(N/N=C/c1ccc(Br)s1)c1ccc([N+](=O)[O-])cc1 | -0.007% (inactive) |
| CCOC(=O)Cn1c(=NC(=O)c2ccc([N+](=O)[O-])s2)sc2ccccc21 | 12% (inactive) |
| CC(=O)c1c(COC(=O)c2ccccc2Cl)nc2ccccc2[n+]1[O-] | 0.001% (inactive) |
| Cc1ccc2c(COC(=O)C34CC5CC(CC(C5)C3)C4)cc(=O)oc2c1 | 0% (inactive) |
| Oc1cccc(/C=N/NC(=S)NCCN2CCOCC2)c1O | 0% (inactive) |
| CCc1ccc(C(=O)NNc2ccc(S(N)(=O)=O)cc2)cc1 | -0.004% (inactive) |
| COc1ccc(OC)c(NC(=O)Nc2ccc3[nH]ccc3c2)c1 | 0% (inactive) |
| CC(C)n1c(NCc2cc(Cl)ccc2O)nc2ccccc21 | -0.007% (inactive) |
| COc1ccc(NC(=O)N(C)[C@H]2C[C@H]3c4[nH]c5ccc(-c6ccc(OC)cc6)cc5c4CCN3C(=O)[C@H]2[C@H](C)O)cc1 | 0.507% (inactive) |
| COc1cccc(CNC(=O)c2ccc(NC(=O)CC3SC(N4CCCC4)=NC3=O)cc2)c1 (configuration not stated) | 0% (inactive) |
| Cc1ccc(NC(=O)COc2ccc(-c3nnco3)cc2)cc1S(=O)(=O)N1CCOCC1 | 0.01% (inactive) |
| Clc1ccc(-c2nc(-c3ccncc3)no2)c(Cl)c1 | 0% (inactive) |
| CCN(CC(=O)Nc1sc2c(c1C#N)CCCC2)CC(=O)NC1CCS(=O)(=O)C1 (configuration not stated) | 0.225% (inactive) |
| Cc1ccc(-c2csc3nc4c5ccccc5c(NCCCN(C)C)nn4c(=O)c23)cc1 | 0% (inactive) |
| CSc1ccc(CN2C(=O)NC3(CCCCCCC3)C2=O)cc1 | -0.004% (inactive) |
| CCCn1c(SCC(=O)NCc2ccc(C)cc2)n[nH]c1=O | -0.007% (inactive) |
| CCN(CC)CCCN=Cc1c(O)n(-c2cccc(C)c2)c(=O)c2ccccc12 | -0.011% (inactive) |
| CCOC(=O)c1ccc(NC(=O)C2CCC(CNc3c(N4CCOCC4)c(=O)c3=O)CC2)cc1 (configuration not stated) | 0.105% (inactive) |

Same assay, conditions: mTEFS fibroblasts autofluorescence, GFP-channel imaging, 3 days; at 21 µM (top of the series); cells pretreated with 5-aza-dC

| Structure (SMILES) | % fluorescent cells increase |
| --- | --- |
| COc1ccc(S(=O)(=O)N(C)C[C@@H]2OCc3cn(nn3)CCCC(=O)N([C@@H](C)CO)C[C@@H]2C)cc1 | 0.036% (inactive) |
